Laboratory results: ChEMBL document CHEMBL3988442, “University of Dundee, Small-Polar-MMV Screening Library” (2021)
Several values for one entry are separate records, joined by “and”; a condition that tells them apart may be missing. Equal entries are not always repeated.

Legend:
[1] = To identify inhibition of the IFN signalling (Jak-Stat) pathway via expression of an eGFP reporter gene under the control of an IFN-stimulated response element (ISRE) containing MxA promoter.; format: functional, Homo sapiens
[2] = biological target: AMP-activated protein kinase, AMPK; experiment: AMP-dependent Kinase enzyme assay. An in vitro enzyme assay that detects ADP turnover that is directly proportional to AMPK activity. This uses naive AMPK that is activated during the assay with MK-8722; format: functional, Homo sapiens
[3] = biological target: Lysine--tRNA ligase (Plasmodium falciparum (isolate 3D7), UniProt Q8IDJ8); experiment: Pf-KRS-1 (Lysyl-RNA Synthetase-1, KRS-1, cytosolic KRS) from Plasmodium falciparum. Inhibitor assay, 384 well plate, luminescence read.; format: functional
[4] = biological target: T1, Histidine--tRNA ligase (Leishmania infantum, UniProt A4I591); experiment: Leishmania infantum Histidine tRNA synthetase (LdHisRS); format: functional
T1 sequence (A4I591 whole entry): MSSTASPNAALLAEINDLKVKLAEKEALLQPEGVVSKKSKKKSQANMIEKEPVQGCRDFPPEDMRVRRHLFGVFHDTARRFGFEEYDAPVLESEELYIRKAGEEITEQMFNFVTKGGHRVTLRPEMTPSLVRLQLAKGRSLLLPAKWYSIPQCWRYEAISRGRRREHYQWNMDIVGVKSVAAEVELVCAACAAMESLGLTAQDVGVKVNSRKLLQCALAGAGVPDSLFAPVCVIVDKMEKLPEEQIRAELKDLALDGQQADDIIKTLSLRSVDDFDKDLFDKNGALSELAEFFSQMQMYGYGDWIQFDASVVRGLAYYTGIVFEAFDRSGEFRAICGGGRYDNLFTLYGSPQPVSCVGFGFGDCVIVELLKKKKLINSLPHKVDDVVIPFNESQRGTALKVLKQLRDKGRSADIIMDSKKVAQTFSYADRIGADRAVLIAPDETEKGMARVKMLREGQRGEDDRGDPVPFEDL

[5] = biological target: T2, Histidine--tRNA ligase (Trypanosoma cruzi (strain CL Brener), UniProt Q4DA54); experiment: Trypanosoma cruzi histidyl tRNA synthetase (Tc-HisRS); format: functional
T2 sequence (Q4DA54 whole entry): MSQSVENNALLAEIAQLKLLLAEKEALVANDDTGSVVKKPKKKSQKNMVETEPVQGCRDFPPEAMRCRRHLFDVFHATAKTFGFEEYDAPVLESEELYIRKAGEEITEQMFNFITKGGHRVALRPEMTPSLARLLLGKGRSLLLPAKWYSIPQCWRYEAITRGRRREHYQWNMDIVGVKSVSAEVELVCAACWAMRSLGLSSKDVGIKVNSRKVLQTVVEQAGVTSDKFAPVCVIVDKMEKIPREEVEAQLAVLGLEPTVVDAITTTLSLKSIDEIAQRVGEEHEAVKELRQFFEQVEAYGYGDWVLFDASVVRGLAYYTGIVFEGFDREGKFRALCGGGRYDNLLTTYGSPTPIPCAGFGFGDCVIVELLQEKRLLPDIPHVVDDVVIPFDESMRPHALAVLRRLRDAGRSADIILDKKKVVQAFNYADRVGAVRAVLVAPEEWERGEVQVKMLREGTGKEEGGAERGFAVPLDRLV

[6] = test system: Schistosoma mansoni; experiment: High throughput screening of compounds against Schistosoma mansoni motility; format: functional; design: dose or concentration left out as unconfirmed
[7] = microbe, parasite or virus in culture; details: Mycobacterium tuberculosis, 96 h, read-out: pIC50 (converted)
[8] = microbe, parasite or virus in culture; details: Mycobacterium tuberculosis, 72 h, read-out: pIC50 (converted)
[9] = test system: Trypanosoma brucei; experiment: Trypanosoma brucei 72 hour study; format: functional, organism-based
[10] = test system: Leishmania donovani; experiment: Leishmania intramacrophage assay; format: functional, organism-based
[11] = biological target: T3, Ubiquitin-activating enzyme e1, putative (Leishmania donovani (strain BPK282A1), UniProt E9BSI1); experiment: Leishmania donovani Ubiquitin Activating Enzyme (LdE1); format: functional
T3 sequence (E9BSI1 whole entry): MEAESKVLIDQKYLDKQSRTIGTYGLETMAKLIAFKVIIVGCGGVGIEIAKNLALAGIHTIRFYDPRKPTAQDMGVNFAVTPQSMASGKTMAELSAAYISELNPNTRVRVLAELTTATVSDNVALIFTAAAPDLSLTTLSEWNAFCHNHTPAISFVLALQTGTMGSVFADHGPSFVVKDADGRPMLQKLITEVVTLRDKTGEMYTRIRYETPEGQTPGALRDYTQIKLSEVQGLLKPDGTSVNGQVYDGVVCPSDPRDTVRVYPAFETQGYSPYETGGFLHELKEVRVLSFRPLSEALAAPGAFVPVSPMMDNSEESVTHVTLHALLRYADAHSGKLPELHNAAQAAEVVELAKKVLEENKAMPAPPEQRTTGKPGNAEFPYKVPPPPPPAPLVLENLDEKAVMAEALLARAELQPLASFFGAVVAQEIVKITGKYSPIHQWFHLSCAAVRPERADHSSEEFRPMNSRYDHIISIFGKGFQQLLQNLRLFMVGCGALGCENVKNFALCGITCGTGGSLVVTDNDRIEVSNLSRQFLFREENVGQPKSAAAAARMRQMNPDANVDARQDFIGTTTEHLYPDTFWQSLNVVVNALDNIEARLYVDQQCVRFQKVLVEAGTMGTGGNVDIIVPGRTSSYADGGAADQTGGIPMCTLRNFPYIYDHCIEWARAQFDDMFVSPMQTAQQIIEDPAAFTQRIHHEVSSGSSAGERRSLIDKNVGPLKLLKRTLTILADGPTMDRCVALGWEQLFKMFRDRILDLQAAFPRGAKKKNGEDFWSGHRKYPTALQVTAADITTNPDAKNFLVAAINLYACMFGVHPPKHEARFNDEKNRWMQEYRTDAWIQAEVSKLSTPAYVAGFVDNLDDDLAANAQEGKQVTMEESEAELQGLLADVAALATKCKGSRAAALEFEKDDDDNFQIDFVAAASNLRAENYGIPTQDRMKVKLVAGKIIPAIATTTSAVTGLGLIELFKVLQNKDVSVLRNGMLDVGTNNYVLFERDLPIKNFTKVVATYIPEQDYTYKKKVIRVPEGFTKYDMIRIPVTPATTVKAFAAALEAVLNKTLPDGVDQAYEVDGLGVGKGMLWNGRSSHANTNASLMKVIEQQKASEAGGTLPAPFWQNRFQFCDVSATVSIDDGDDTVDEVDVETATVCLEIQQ

Lysine--tRNA ligase, sequence (Q8IDJ8 whole entry): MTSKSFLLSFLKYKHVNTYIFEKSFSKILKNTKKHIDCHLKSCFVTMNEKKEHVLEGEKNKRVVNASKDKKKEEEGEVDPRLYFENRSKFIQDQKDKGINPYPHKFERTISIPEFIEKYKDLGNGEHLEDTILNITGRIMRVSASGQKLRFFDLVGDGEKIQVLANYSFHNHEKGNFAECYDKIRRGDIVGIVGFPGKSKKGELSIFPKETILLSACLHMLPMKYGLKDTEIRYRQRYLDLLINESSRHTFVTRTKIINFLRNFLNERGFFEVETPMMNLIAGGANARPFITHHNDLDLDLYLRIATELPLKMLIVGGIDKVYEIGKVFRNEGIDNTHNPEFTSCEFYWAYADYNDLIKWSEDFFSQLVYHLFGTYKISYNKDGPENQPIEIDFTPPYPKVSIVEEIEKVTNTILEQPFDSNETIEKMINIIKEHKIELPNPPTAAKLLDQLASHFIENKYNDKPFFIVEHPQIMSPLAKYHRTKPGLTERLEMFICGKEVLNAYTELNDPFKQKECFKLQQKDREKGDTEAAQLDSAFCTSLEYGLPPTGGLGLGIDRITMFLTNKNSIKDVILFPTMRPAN

## CS(=O)(=O)c1ccc(NC(=O)N2CCc3sccc3C2)cn1
[1]
  pIC50: 4.408 and 4.389

## COc1ncccc1NC(=O)N(Cc1ccc(C)o1)C1CC1
[1]
  pIC50: 4.53 and 4.637

## Cc1nc(CCNC(=O)NCc2ccc(N(C)C)nc2)cs1
[1]
  pIC50: < 4.21

## CC(=O)c1c(F)cccc1N1CCC(Cc2cccnc2)CC1
[1]
  pIC50: 5.268 and 5.138

## c1cnn(CC2CCCN2c2ncnc3sccc23)c1 (stereo unspecified)
[1]
  pIC50: 5.137 and 5.086

## CC(=O)N1C[C@@H](c2ccsc2)[C@@H]2CN(Cc3cccc(Cl)c3)CC[C@@H]21
[1]
  pIC50: 4.483 and 4.43

## COc1cccc(CN2CCN(c3ccc4nncn4n3)C(C)C2)c1 (stereo unspecified)
[1]
  pIC50: 4.923 and 4.922

## Nc1nccc(-c2c[nH]nc2C2CCCCC2)n1
[1]
  pIC50: 4.943 and 4.951

## Cc1ccc(C(=O)Nc2cc(C(C)C)n[nH]2)cn1
[1]
  pIC50: 4.606 and 4.922

## COc1cccc(CNc2cnn(C)c(=O)c2Cl)c1
[1]
  pIC50: 4.709 and 5.107

## CCn1c(C2CCCN(Cc3nccn3CCOC)C2)nn(C)c1=O (stereo unspecified)
[1]
  pIC50: < 4.21

## CC(C)C1CCCN1C(=O)Nc1ccc(=O)n(C)c1 (stereo unspecified)
[2]
  pIC50: < 4
[3]
  IC50: > 50.1 µM
[4]
  IC50: 1.01 µM and 1.02 µM and 2.81 µM and 2.75 µM
[5]
  IC50: 19 µM and 22.3 µM

## CC(C)c1nc(C2CCCN(C(=O)CCCn3cncn3)C2)no1 (stereo unspecified)
[1]
  pIC50: < 4.21

## CN1C(=O)C(C)(C)COc2cc(NS(=O)(=O)Cc3ccccc3)ccc21
[6]
  Percent Effect: 31.95%
[1]
  pIC50: < 4.21 and 4.593

## Cc1n[nH]cc1CNc1ccc2c(c1)CN(C(=O)OC(C)(C)C)CC2
[1]
  pIC50: 4.816 and 4.848

## COCC1c2c(cnn2CC2CC2)CCN1Cc1ccc(OC)cc1 (stereo unspecified)
[1]
  pIC50: 5.287 and 5.465

## O=C1NCCN1C1CCCN(Cc2coc(-c3ccc(F)cc3)n2)C1 (stereo unspecified)
[1]
  pIC50: 4.93 and 4.918

## CC(C)N(CC(N)=O)Cc1csc(COc2ccc(F)cc2)n1
[1]
  pIC50: 5.121 and 5.081

## Cc1nc(C)n(CC2CCCN(c3ncnc4c3CCC4)C2)n1 (stereo unspecified)
[1]
  pIC50: 5.177 and 5.243

## CCS(=O)(=O)N1CCCc2ccc(NC(=O)Cc3ccc(F)cc3)cc21
[1]
  pIC50: 4.555 and 4.597

## Cc1ccc(S(=O)(=O)N2C[C@H]3C[C@H](NC(=O)c4ccnn4C)[C@H]3C2)cc1
[1]
  pIC50: 5.601 and 5.47 and 5.597 and 5.592

## Cc1noc(NC(=O)c2ccc(C)c(F)c2)n1
[7]
  IC50: 27.1 µM
[8]
  IC50: 30.5 µM
[1]
  pIC50: 4.682 and < 4.57

## Cc1cc(-c2cnc(NCc3cccnc3)nc2C(C)C)on1
[1]
  pIC50: 4.396 and 4.538

## Cc1ccc(CC(=O)Nc2cc(C(C)C)n[nH]2)cn1
[9]
  pIC50: 4.869 and 4.956
[9]; Trypanosoma brucei, 72 h
  IC50: 12.7 µM
[2]
  pIC50: < 4
[10]
  pIC50: 4.917
[10]; Leishmania donovani
  IC50: 11.7 µM

## Cc1cc(-c2cnc(N3CCCC(C)C3)nc2-c2cccnc2C)on1.Cl (stereo unspecified)
[1]
  pIC50: 4.421 and 4.521

## CCc1ccc(CN2C[C@@H]3OCCN(c4ccnc(N(C)C)n4)[C@@H]3C2)o1.O=C(O)C(F)(F)F
[1]
  pIC50: 5.071 and 5.204

## CC(C)(O)C1CCN(C(=O)Nc2nc(-c3ccccc3)ns2)CC1
[1]
  pIC50: 4.605 and 4.639

## O=C(O)C(F)(F)F.O=C(c1ncccn1)N1C[C@H]2CCC[C@@]2(COCc2cccnc2)C1
[1]
  pIC50: < 4.21

## Cc1cc(CN2CCCC2c2noc(C3CC3)n2)c2ccccc2n1 (stereo unspecified)
[1]
  pIC50: 5.12 and 5.038

## Cc1nc(C)n(C2CCCN(C(=O)c3ccc(N(C)C)nn3)C2)n1 (stereo unspecified)
[1]
  pIC50: < 4.21

## OCC1CCCN1c1cc(NCc2ccc(Cl)s2)ncn1 (stereo unspecified)
[1]
  pIC50: 4.462 and 4.49

## O=C(C1CCN(c2snc3ccccc23)CC1)N1CCCCCC1
[1]
  pIC50: 4.575 and 4.655

## c1cnn(CC2CN(c3ncnc4ccsc34)CCO2)c1 (stereo unspecified)
[1]
  pIC50: 4.809 and 4.868

## CC(C)N1Cc2c(C(=O)N3CCOCC3)nn(C)c2C1.O=C(O)C(F)(F)F.O=C(O)C(F)(F)F
[1]
  pIC50: < 4.21

## CC(C)c1nnc2ccc(N3CCC(C(=O)Nc4nccs4)CC3)nn12
[1]
  pIC50: 5 and 4.933

## COc1ccc(-c2nnc(SC(C)C(=O)NC3CC3)[nH]2)c(OC)c1 (stereo unspecified)
[1]
  pIC50: 4.665 and 4.584

## CC(C)c1nc2n(n1)CC(NCc1nnc(C(C)C)o1)CC2 (stereo unspecified)
[2]
  pIC50: < 4
[11]
  IC50: > 100 µM

## CN(C)c1ccc(CCCNC(=O)Nc2ccc(C#N)cc2)cc1
[1]
  pIC50: 4.654 and 4.645

## CCc1nc(CN2CCN(c3ncnc4cc(F)ccc34)CC2)no1
[1]
  pIC50: 5.76 [middle of 4 runs]

## Cc1nc(C)n(CC2CCCN(c3ncnc4sccc34)C2)n1 (stereo unspecified)
[1]
  pIC50: 5.597 and 5.199

## COC(=O)c1ccc(S(=O)(=O)NCc2cccnc2N(C)C)cc1
[1]
  pIC50: 4.637 and 5.104

## CC(=O)c1ccc(N2CCCC(CO)(CCOc3ccccc3)C2)nc1 (stereo unspecified)
[1]
  pIC50: 4.524 and 4.702

## CN(Cc1ccco1)[C@@H]1CN(C(=O)c2ccnnc2)[C@@H]2CCCO[C@H]12.O=C(O)C(F)(F)F
[1]
  pIC50: < 4.21

## Clc1ccc2cccnc2c1CN1CCCC1Cn1cncn1 (stereo unspecified)
[1]
  pIC50: 4.696 and 4.448

## COc1ccc(C)cc1CN1CCCC1c1noc(C2CC2)n1 (stereo unspecified)
[1]
  pIC50: 4.543 and 4.502

## O=C(Cc1noc2ccccc12)N1CCCC1c1noc(C2CC2)n1 (stereo unspecified)
[1]
  pIC50: 4.845 and 4.787

## O=C(O)C(F)(F)F.O=C(O)C(F)(F)F.O=C(O)C(F)(F)F.c1ccc(CO[C@@H]2CO[C@@]3(CCN(Cc4ccccn4)C3)C2)nc1
[1]
  pIC50: < 4.21

## CCS(=O)(=O)N1CCc2ccc(NC(=O)Nc3cccc(SC)c3)cc21
[1]
  pIC50: 5.726 [middle of 4 runs]

## CCn1ncc2c1CCCC2NCc1cc(Cl)c(OC)c(OC)c1 (stereo unspecified)
[1]
  pIC50: 4.746 and 4.672

## CC(C)(C)C(=O)N1C[C@H](c2ccsc2)[C@H]2CN(Cc3cccs3)CC[C@H]21.Cl
[1]
  pIC50: 4.58 and 4.539
